From ChEMBL document CHEMBL4507286 (2021)
The source made the active and inactive calls.

Legend:
[1] = target: Delta-type opioid receptor (Homo sapiens) (UniProt P41143); details: Compound concentration 10.0 uM
[2] = target: Casein kinase II subunit alpha (Homo sapiens) (UniProt P68400)
[3] = target: D(2) dopamine receptor (Homo sapiens) (UniProt P14416); details: Compound concentration 10.0 uM
[4] = target: 5-hydroxytryptamine receptor 1E (Homo sapiens) (UniProt P28566); details: Compound concentration 10.0 uM
[5] = target: cGMP-dependent protein kinase 1 (Homo sapiens) (UniProt Q13976)
[6] = target: Casein kinase I isoform gamma-1 (Homo sapiens) (UniProt Q9HCP0)
[7] = target: Ephrin type-A receptor 4 (Homo sapiens) (UniProt P54764)
[8] = target: 5-hydroxytryptamine receptor 2B (Homo sapiens, UniProt P41595); assay: GPCRScan assay: inhibition of 5-HT2B; design: radioligand conc. used [nm] 1.0 – 2.0, parental cells stable HEK
[9] = target: Sigma intracellular receptor 2 (Homo sapiens) (UniProt Q5BJF2); details: Compound concentration 10.0 uM
[10] = target: Interferon-induced, double-stranded RNA-activated protein kinase (Homo sapiens) (UniProt P19525)
[11] = target: 5-hydroxytryptamine receptor 2C (Homo sapiens) (UniProt P28335); details: Compound concentration 10.0 uM
[12] = target: Serine/threonine-protein kinase PAK 4 (Homo sapiens) (UniProt O96013)
[13] = target: Serine/threonine-protein kinase TAO1 (Homo sapiens) (UniProt Q7L7X3)
[14] = target: Alpha-1D adrenergic receptor (Homo sapiens) (UniProt P25100); details: Compound concentration 10.0 uM
[15] = target: STE20-like serine/threonine-protein kinase (Homo sapiens) (UniProt Q9H2G2)
[16] = target: GABA-A receptor; anion channel (Rattus norvegicus) (UniProt O09028+P15431+P18506+P18508+P19969+P20236+P23574+P23576+P28471+P28473+P30191+P62813+P63079+P63138+Q91ZM7+Q9ES14); details: Compound concentration 10.0 uM
[17] = target: Sigma non-opioid intracellular receptor 1 (Homo sapiens) (UniProt Q99720); details: Compound concentration 10.0 uM
[18] = target: T1, Mitogen-activated protein kinase 1 (Homo sapiens, UniProt P28482); assay: Cell Assay: Inhibition of RSK phosphorylation (pRSK with 40% human serum)
[19] = target: G protein-coupled receptor kinase 3 (Homo sapiens, UniProt P35626); assay: Inhibition of GRK3 at compound concentration of 10.0 uM using the ScanMax (DiscoverX)
[20] = target: Cyclin-dependent kinase 5 (Homo sapiens, UniProt Q00535); assay: Invitrogen kinase screen (CDK5)
[21] = target: T1, Mitogen-activated protein kinase 1; assay: Invitrogen kinase screen (MAPK1)
[22] = NanoBRET (MAPK1, SGC Frankfurt); details: Homo sapiens
[23] = target: Serine/threonine-protein kinase haspin (Homo sapiens, UniProt Q8TF76); assay: Inhibition of GSG2 at compound concentration of 10.0 uM using the ScanMax (DiscoverX)
[24] = target: Muscarinic acetylcholine receptor M1 (Homo sapiens) (UniProt P11229); details: Compound concentration 10.0 uM
[25] = target: Serine/threonine-protein kinase 26 (Homo sapiens, UniProt Q9P289); assay: Invitrogen kinase screen (STK26)
[26] = target: Dual specificity protein kinase CLK4 (Homo sapiens, UniProt Q9HAZ1); assay: Inhibition of CLK4 at compound concentration of 10.0 uM using the ScanMax (DiscoverX)
[27] = target: cGMP-dependent protein kinase 2 (Homo sapiens, UniProt Q13237); assay: Invitrogen kinase screen (PRKG2)
[28] = target: Cyclin-dependent kinase 7 (Homo sapiens, UniProt P50613); assay: Inhibition of CDK7 at compound concentration of 10.0 uM using the ScanMax (DiscoverX)
[29] = target: Cyclin-dependent kinase 2 (Homo sapiens, UniProt P24941); assay: Invitrogen kinase screen (CDK2)
[30] = target: T1, Mitogen-activated protein kinase 1; assay: Cell Assay: Inhibition of RSK phosphorylation (pRSK A375SM); type: cell-based, A375-SM
[31] = target: Dual specificity protein kinase CLK2 (Homo sapiens, UniProt P49760); assay: Invitrogen kinase screen (CLK2)
[32] = target: 5-hydroxytryptamine receptor 1B (Homo sapiens) (UniProt P28222); details: Compound concentration 10.0 uM
[33] = target: Serine/threonine-protein kinase TBK1 (Homo sapiens, UniProt Q9UHD2); assay: Invitrogen kinase screen (TBK1)
[34] = target: T1, Mitogen-activated protein kinase 1
[35] = target: Serine/threonine-protein kinase Sgk1 (Homo sapiens, UniProt O00141); assay: Invitrogen kinase screen (SGK)
[36] = target: Beta-2 adrenergic receptor (Homo sapiens) (UniProt P07550); details: Compound concentration 10.0 uM
[37] = target: T1, Mitogen-activated protein kinase 1; assay: Cell Assay: Inhibition of RSK phosphorylation (pRSK with 40% mouse serum )
[38] = target: Glycogen synthase kinase-3 alpha (Homo sapiens, UniProt P49840); assay: Invitrogen kinase screen (GSK3A)
[39] = NanoBRET (MAPK3, SGC Frankfurt); details: Homo sapiens
[40] = target: 5-hydroxytryptamine receptor 6 (Homo sapiens) (UniProt P50406); details: Compound concentration 10.0 uM
[41] = target: Serine/threonine-protein kinase MARK2 (Homo sapiens, UniProt Q7KZI7); assay: Invitrogen kinase screen (MARK2)
[42] = target: Serine/threonine-protein kinase ULK1 (Homo sapiens, UniProt O75385); assay: Inhibition of ULK1 at compound concentration of 10.0 uM using the ScanMax (DiscoverX)
[43] = target: Glycogen synthase kinase-3 beta (Homo sapiens, UniProt P49841); assay: Invitrogen kinase screen (GSK3B)
[44] = Compound concentration 1000.0 nM
[45] = Compound concentration 100.0 nM

T1 sequence (P28482 whole entry): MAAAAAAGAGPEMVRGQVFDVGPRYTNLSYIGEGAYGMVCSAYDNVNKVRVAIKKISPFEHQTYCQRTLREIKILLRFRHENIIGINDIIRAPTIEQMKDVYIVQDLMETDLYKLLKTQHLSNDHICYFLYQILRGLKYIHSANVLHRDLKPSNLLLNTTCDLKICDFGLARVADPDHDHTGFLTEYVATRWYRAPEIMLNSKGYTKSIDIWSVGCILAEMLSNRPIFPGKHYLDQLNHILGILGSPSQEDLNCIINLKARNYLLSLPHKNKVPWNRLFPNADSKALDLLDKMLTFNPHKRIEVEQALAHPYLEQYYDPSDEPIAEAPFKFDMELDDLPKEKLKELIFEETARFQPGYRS
Sequence of Casein kinase II subunit alpha (Homo sapiens) (P68400 whole entry, looked up): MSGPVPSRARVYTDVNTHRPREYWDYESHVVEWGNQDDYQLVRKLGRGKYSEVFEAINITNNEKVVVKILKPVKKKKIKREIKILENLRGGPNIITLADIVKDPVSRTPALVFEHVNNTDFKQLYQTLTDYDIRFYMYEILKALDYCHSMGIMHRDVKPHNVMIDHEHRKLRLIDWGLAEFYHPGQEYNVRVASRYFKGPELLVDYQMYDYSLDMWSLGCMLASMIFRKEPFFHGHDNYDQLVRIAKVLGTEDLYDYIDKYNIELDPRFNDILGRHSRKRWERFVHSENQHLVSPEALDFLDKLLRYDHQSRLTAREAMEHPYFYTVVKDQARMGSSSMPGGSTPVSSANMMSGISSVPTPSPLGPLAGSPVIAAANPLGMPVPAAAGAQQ
Sequence of Ephrin type-A receptor 4 (Homo sapiens) (P54764 whole entry): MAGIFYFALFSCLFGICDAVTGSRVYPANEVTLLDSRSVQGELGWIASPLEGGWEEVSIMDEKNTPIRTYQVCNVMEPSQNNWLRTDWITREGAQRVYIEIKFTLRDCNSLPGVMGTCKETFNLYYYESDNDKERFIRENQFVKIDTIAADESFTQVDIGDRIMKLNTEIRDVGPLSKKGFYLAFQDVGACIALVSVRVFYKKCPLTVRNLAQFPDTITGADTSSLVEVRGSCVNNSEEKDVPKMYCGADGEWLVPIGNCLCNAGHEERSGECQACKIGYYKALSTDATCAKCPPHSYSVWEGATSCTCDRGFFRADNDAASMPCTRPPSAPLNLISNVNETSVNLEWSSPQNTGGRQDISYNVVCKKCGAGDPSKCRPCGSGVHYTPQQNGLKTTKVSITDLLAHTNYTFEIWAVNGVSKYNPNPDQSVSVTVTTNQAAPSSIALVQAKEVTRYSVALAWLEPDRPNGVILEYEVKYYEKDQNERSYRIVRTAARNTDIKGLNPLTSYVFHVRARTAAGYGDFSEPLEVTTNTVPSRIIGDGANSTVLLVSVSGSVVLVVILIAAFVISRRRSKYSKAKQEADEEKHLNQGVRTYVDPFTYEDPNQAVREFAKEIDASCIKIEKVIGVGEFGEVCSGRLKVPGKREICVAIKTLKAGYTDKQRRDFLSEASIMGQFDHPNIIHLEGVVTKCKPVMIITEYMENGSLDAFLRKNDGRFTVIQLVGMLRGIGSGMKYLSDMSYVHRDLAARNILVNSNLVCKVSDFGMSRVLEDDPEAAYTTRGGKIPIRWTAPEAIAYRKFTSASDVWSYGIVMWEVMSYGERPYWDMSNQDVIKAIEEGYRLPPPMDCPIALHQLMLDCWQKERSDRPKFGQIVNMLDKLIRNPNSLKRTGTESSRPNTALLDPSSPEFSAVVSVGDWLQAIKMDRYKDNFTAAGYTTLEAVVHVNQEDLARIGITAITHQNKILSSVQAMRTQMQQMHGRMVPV
Sequence of Serine/threonine-protein kinase TAO1 (Homo sapiens) (Q7L7X3 whole entry): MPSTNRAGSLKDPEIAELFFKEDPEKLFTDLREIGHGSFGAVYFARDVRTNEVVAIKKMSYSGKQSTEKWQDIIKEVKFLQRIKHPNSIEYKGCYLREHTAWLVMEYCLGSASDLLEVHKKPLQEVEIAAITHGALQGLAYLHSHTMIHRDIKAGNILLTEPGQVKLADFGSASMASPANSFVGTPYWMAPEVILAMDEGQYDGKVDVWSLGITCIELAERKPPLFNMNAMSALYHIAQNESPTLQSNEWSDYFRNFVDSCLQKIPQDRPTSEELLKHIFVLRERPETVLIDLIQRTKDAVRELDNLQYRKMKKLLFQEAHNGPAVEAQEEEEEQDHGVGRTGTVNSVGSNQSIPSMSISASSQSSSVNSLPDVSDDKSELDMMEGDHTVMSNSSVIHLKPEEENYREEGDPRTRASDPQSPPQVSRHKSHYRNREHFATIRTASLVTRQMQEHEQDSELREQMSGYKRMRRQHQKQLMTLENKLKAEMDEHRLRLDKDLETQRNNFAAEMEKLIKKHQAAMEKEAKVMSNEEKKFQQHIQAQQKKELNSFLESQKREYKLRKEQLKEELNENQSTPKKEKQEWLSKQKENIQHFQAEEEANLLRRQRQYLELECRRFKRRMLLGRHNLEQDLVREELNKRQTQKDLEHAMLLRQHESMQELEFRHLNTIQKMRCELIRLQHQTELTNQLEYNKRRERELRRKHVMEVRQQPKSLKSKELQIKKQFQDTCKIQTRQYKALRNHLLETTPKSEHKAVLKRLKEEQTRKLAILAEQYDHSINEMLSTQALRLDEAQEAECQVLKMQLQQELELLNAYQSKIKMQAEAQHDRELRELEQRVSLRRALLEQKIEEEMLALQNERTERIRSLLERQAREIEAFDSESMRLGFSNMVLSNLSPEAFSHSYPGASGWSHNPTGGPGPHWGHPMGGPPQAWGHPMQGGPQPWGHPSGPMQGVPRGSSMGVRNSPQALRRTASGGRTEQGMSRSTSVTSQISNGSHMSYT
Sequence of STE20-like serine/threonine-protein kinase (Homo sapiens) (Q9H2G2 whole entry, looked up): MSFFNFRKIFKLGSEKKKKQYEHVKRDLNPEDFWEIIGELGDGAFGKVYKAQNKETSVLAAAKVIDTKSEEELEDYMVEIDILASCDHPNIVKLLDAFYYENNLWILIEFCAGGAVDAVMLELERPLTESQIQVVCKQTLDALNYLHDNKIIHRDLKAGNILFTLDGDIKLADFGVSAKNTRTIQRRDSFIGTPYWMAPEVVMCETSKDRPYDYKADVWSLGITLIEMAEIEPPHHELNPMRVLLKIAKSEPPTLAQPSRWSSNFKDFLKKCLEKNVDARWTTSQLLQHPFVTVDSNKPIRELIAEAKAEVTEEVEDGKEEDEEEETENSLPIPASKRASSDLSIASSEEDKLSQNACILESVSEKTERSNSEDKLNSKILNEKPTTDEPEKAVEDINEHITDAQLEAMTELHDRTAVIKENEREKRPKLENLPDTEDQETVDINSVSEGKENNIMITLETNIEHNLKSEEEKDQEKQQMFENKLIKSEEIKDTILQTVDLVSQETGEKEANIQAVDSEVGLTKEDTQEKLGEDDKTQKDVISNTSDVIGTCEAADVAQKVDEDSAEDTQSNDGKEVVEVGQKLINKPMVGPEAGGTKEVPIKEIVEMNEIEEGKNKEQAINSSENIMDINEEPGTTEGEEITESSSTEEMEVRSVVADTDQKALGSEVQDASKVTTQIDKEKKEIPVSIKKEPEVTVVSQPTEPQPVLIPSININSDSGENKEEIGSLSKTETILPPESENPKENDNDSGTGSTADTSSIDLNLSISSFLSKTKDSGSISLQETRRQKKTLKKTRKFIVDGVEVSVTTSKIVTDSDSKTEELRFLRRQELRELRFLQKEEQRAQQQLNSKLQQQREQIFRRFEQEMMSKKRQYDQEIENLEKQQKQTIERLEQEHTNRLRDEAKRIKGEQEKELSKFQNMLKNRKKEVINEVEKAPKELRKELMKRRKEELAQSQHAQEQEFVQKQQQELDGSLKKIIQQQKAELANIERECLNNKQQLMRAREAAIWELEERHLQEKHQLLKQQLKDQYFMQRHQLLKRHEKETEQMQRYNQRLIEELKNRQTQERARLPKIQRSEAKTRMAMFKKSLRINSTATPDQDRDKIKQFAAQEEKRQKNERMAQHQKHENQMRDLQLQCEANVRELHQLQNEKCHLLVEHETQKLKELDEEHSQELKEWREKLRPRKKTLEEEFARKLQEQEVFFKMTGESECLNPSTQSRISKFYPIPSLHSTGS
Sequence of Interferon-induced, double-stranded RNA-activated protein kinase (Homo sapiens) (P19525 whole entry): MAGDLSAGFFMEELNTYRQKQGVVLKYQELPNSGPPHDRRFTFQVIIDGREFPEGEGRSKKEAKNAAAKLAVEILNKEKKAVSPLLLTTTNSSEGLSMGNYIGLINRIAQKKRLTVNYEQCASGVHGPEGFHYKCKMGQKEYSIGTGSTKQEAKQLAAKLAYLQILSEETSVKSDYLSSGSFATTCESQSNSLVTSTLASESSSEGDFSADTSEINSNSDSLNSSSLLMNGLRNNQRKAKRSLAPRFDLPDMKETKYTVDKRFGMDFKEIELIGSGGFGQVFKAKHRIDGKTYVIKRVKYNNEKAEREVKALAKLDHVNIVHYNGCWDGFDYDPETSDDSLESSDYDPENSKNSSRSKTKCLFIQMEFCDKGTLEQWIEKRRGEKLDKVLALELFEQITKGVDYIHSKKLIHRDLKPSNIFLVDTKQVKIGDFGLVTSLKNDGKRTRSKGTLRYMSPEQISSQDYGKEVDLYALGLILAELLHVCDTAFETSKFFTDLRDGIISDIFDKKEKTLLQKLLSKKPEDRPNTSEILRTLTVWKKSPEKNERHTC
Sequence of 5-hydroxytryptamine receptor 2C (Homo sapiens) (P28335 whole entry): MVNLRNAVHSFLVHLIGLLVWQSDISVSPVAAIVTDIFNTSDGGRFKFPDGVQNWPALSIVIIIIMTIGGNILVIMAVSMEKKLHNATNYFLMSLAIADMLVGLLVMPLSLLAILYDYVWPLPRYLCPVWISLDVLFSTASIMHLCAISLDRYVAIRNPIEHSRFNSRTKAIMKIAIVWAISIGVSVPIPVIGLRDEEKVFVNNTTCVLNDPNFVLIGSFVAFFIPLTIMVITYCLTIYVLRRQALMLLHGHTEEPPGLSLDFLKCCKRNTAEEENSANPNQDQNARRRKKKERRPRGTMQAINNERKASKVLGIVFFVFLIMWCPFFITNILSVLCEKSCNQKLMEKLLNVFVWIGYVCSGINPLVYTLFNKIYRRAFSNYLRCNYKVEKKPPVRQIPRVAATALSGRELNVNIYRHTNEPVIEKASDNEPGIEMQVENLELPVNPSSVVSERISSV

C[C@H](NC(=O)Nc1cc2[nH]ncc2c(CO)n1)c1ccccn1 [ERKi-NC]
538 nM: Ki [8]
inactive: inhibition [1] 2.71% | residual activity [2, 44] 100% | inhibition [3] 17.7% | inhibition [4] -8.44% | residual activity [5, 44] 90.7% | residual activity [6, 44] 100% | residual activity [7, 44] 61% | inhibition [9] 20.8% | residual activity [10, 44] 71.8% | inhibition [11] 13.6% | residual activity [12, 44] 90.2% | residual activity [13, 44] 100% | inhibition [14] -7.9% | residual activity [15, 44] 76% | inhibition [16] 25.5% | inhibition [17] 12.8%

C[C@@H](NC(=O)Nc1cc2[nH]ncc2c(CO)n1)c1ccccc1 [ERKi]
210 nM (not active): IC50 [38]
950 nM (not active): IC50 [27]
880 nM (not active): IC50 [25]
140 nM (not active): Kd [19] | Kd [42]
790 nM (not active): IC50 [29]
active: IC50 [18] 225 nM | IC50 [21] 4 nM | EC50 [22] 95 nM | IC50 [22] 850 nM | IC50 [30] 280 nM | Kd [34] 4.8 nM | IC50 [37] 788 nM | EC50 [39] 32 nM
230 nM (not active): Kd [26] | Kd [28]
270 nM (not active): IC50 [35]
130 nM (not active): Kd [23]
1200 nM (not active): IC50 [20]
540 nM (not active): IC50 [43]
inactive: inhibition [24] -1.16% | residual activity [2, 45] 94% | residual activity [5, 45] 52.4% | residual activity [6, 45] 83% | residual activity [7, 45] 100% | inhibition [32] 4.23% | residual activity [10, 45] 78.1% | inhibition [11] 26.3% | residual activity [12, 45] 93.7% | residual activity [13, 45] 66.4% | inhibition [36] 1.36% | residual activity [15, 45] 92.6% | inhibition [40] 8.67%
6690 nM: IC50 [39]
770 nM (not active): IC50 [33]
940 nM (not active): IC50 [31]
1400 nM (not active): IC50 [41]
